Results on 17 compounds are retold here after ChEMBL document CHEMBL1914414, “Selective cholinesterase inhibition by lanostane triterpenes from fruiting bodies of Ganoderma lucidum” (Bioorg Med Chem Lett, 2011).

One test concerns the target Acetylcholinesterase (Homo sapiens, UniProt P22303). Nature of the test: Inhibition of AChE assessed as hydrolysis of acetylcholine preincubated for 15 mins measured after 15 mins by colorimetric Ellman assay. (In general: Ellman's reagent forms a yellow product with free thiols.)
A further test deals with Cholinesterase (Homo sapiens, UniProt P06276). The experiment in a line: Inhibition of BChE assessed as hydrolysis of butrylcholine preincubated for 15 mins measured after 15 mins by colorimetric Ellman assay.
Cholinesterase, sequence (P06276 whole entry): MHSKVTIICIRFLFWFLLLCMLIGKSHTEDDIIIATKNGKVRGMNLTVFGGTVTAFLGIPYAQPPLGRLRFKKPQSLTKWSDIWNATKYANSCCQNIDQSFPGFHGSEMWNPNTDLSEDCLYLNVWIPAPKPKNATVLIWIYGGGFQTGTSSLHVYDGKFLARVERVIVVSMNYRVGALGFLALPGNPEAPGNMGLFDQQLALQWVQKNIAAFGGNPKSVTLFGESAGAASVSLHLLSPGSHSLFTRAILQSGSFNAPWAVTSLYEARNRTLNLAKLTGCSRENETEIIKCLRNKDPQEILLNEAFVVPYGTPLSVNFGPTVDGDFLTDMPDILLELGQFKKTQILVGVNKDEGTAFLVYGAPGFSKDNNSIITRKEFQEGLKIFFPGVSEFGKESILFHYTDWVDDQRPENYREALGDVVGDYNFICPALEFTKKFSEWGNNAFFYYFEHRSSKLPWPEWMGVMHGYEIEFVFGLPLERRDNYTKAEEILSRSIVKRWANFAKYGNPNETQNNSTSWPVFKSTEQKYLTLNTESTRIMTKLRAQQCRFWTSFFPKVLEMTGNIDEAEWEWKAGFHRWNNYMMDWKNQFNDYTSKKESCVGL

Acetylcholinesterase, sequence (P22303 whole entry): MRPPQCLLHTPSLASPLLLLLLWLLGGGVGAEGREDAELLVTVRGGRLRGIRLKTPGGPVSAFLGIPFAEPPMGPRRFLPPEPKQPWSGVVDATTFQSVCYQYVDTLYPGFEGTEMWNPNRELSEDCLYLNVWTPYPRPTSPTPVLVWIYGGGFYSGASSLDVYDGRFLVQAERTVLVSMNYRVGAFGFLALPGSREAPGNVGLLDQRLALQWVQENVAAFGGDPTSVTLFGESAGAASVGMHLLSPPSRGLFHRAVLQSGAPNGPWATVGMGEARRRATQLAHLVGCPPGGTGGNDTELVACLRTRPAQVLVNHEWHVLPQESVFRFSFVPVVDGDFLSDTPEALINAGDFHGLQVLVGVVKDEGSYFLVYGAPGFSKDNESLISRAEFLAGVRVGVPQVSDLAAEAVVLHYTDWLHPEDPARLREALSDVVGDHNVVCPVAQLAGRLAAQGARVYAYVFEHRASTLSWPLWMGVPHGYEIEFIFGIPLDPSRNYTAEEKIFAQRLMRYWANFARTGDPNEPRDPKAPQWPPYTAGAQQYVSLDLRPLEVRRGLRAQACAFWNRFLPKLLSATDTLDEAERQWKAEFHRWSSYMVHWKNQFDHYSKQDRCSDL

With `CCCCOC(=O)C(C)CC(=O)C[C@@H](C)[C@H]1CC(=O)[C@@]2(C)C3=C(C(=O)[C@@H](OC(C)=O)[C@]12C)[C@@]1(C)CC[C@H](O)C(C)(C)[C@@H]1CC3=O` (some centres undefined), the half-maximal inhibitory concentration (IC50) is 9.4 µM on Acetylcholinesterase and over 200 µM on Cholinesterase.
For `CCCCOC(=O)CC[C@@H](C)[C@H]1CC[C@@]2(C)C3=C(C(=O)C[C@]12C)[C@@]1(C)CC[C@H](O)C(C)(C)[C@@H]1C[C@@H]3O`, the IC50 on Acetylcholinesterase is 11.6 µM; at Cholinesterase, over 200 µM.
In the same order, the values of `CCCCOC(=O)CC[C@@H](C)[C@H]1CC[C@@]2(C)C3=C(C(=O)C[C@]12C)[C@@]1(C)CCC(=O)C(C)(C)[C@@H]1C[C@@H]3O` are 12.3 µM and over 200 µM.
Consider `CC(CC(=O)C[C@@H](C)[C@H]1CC(=O)[C@@]2(C)C3=C(C(=O)C[C@]12C)[C@@]1(C)CC[C@H](O)C(C)(C)[C@@H]1C[C@@H]3O)C(=O)O` (some centres undefined) [GANODERIC ACID B], for which the half-maximal inhibitory concentration (IC50) was 22.6 µM on Acetylcholinesterase and over 200 µM at Cholinesterase.
For `C[C@H](CC(=O)C[C@@H](C)[C@H]1CC(=O)[C@@]2(C)C3=C(C(=O)C[C@]12C)[C@@]1(C)CCC(=O)C(C)(C)[C@@H]1CC3=O)C(=O)O` [GANODERIC ACID E], the IC50 at Acetylcholinesterase was 18.4 µM; at Cholinesterase, over 200 µM.
For `C/C(=C\CC[C@@H](C)[C@H]1CC[C@@]2(C)C3=CC[C@H]4C(C)(C)[C@@H](O)CC[C@]4(C)C3=CC[C@]12C)C(=O)O` [GANODERIC ACID Y] the same measures were 21.1 µM and over 200 µM.
Consider `C[C@H](CCC=C(CO)CO)[C@H]1CC[C@@]2(C)C3=CC[C@H]4C(C)(C)C(=O)CC[C@]4(C)C3=CC[C@]12C` [GANODERIOL F], for which the IC50 at Acetylcholinesterase is 21.8 µM; at Cholinesterase it was over 200 µM.
For the compound `C[C@H](CC[C@@H](O)C(C)(C)O)[C@H]1CC[C@@]2(C)C3=CC[C@H]4C(C)(C)C(=O)CC[C@]4(C)C3=CC[C@]12C` [GANODERMANONDIOL], the results for the IC50 on Acetylcholinesterase and at Cholinesterase were 25.1 µM and over 200 µM, respectively.
In the case of `C[C@H](CC[C@H](O)[C@](C)(O)CO)[C@H]1CC[C@@]2(C)C3=CC[C@H]4C(C)(C)C(=O)CC[C@]4(C)C3=CC[C@]12C` [GANODERMANONTRIOL], the IC50 on Acetylcholinesterase was 22.3 µM; at Cholinesterase, over 200 µM.
In the same order, the values of `C/C(=C\CC[C@@H](C)[C@H]1CC[C@@]2(C)C3=CC[C@H]4C(C)(C)[C@@H](O)CC[C@]4(C)C3=CC[C@]12C)CO` [GANODEROL B] are 26.8 µM and over 200 µM.
With `CC(CC(=O)C[C@@H](C)[C@H]1C[C@H](O)[C@@]2(C)C3=C(C(=O)C[C@]12C)[C@@]1(C)CCC(=O)C(C)(C)[C@@H]1CC3)C(=O)O` (some centres undefined) [GANOLUCIDIC ACID A], the IC50 on Acetylcholinesterase was 23 µM; on Cholinesterase it was over 200 µM.
Regarding `C/C(=C\CC[C@@H](C)[C@H]1CC[C@@]2(C)C3=C(CC[C@]12C)[C@@]1(C)CC[C@H](O)C(C)(C)[C@@H]1CC3=O)CO` [LUCIDADIOL], the IC50 stood at 31 µM at Acetylcholinesterase and 156 µM on Cholinesterase.
`C[C@H](CCC(=O)O)[C@H]1CC(=O)[C@@]2(C)C3=C(C(=O)C[C@]12C)[C@@]1(C)CCC(=O)C(C)(C)[C@@H]1C[C@@H]3O` [LUCIDENIC ACID A]: the IC50 at Acetylcholinesterase is 24 µM; on Cholinesterase, over 200 µM.
As to `C[C@H](CCC(=O)O)[C@H]1CC(=O)[C@@]2(C)C3=C(C(=O)C[C@]12C)[C@@]1(C)CC[C@H](O)C(C)(C)[C@@H]1C[C@@H]3O` [LUCIDENIC ACID N], the IC50 at Acetylcholinesterase was determined as 25.9 µM; at Cholinesterase it was 188 µM.
In the same order, the values of `COC(=O)[C@H](C)CC(=O)C[C@@H](C)[C@H]1C[C@@H]2OC(C)(C)O[C@H]3C[C@H]4C(C)(C)C(=O)CC[C@]4(C)C4=C3[C@@]2(C)[C@]1(C)CC4=O` [METHYL GANODERATE A ACETONIDE] are 18.4 µM and over 200 µM.
On to `COC(=O)C(C)CC(=O)C[C@@H](C)[C@H]1C[C@H](O)[C@@]2(C)C3=C(C(=O)C[C@]12C)[C@@]1(C)CCC(=O)C(C)(C)[C@@H]1C[C@@H]3O` (some centres undefined) [METHYL GANODERATE A], for which the figures for the IC50 on Acetylcholinesterase and at Cholinesterase were 30.3 µM and over 200 µM, respectively.
As to `COC(=O)CC[C@@H](C)[C@H]1CC(=O)[C@@]2(C)C3=C(C(=O)[C@@H](OC(C)=O)[C@]12C)[C@@]1(C)CC[C@H](O)C(C)(C)[C@@H]1CC3=O` [METHYL LUCIDENATE E2], the IC50 on Acetylcholinesterase was 17.1 µM; on Cholinesterase it was over 200 µM.

The term IC50 denotes the midpoint of a concentration-inhibition curve.
